Calls of active or inactive are those of the source. No cut-off for these calls is given here. Where a SMILES comes first, the peptide text is derived from it. [ ]: non-standard residue; d: D form. The star is where a group is joined. X2 = CC(C)(COP(=O)(O)OP(=O)(O)OC[C@H]1O[C@@H](n2cnc3c(N)ncnc32)[C@H](OP(=O)(O)O)[C@@H]1O)C(O)C(=O)NCCC(=O)NCC*; Mpa = O=C(O)CCS
Experiments:
[1] = Drug uptake in digitonin treated human HCT116 cells measured at 100 uM after 2 hrs of incubation by MALDI-MS; type: ADME, cell-based; conditions: hct-116, 2 h
[2] = molecular target: N-alpha-acetyltransferase 40 (Homo sapiens) (UniProt Q86UY6); conditions: HCT-116, Lysate, dose 100.0 µM, time 2.0 hrs
[3] = molecular target: Histone acetyltransferase KAT2B (Homo sapiens) (UniProt Q92831); experiment: Inhibition of human PCAF using AcCoA and H4 peptide as substrate at 10 uM incubated for 20 min at room temperature
Chain of Histone acetyltransferase KAT2B (Homo sapiens) (Q92831 whole entry, looked up): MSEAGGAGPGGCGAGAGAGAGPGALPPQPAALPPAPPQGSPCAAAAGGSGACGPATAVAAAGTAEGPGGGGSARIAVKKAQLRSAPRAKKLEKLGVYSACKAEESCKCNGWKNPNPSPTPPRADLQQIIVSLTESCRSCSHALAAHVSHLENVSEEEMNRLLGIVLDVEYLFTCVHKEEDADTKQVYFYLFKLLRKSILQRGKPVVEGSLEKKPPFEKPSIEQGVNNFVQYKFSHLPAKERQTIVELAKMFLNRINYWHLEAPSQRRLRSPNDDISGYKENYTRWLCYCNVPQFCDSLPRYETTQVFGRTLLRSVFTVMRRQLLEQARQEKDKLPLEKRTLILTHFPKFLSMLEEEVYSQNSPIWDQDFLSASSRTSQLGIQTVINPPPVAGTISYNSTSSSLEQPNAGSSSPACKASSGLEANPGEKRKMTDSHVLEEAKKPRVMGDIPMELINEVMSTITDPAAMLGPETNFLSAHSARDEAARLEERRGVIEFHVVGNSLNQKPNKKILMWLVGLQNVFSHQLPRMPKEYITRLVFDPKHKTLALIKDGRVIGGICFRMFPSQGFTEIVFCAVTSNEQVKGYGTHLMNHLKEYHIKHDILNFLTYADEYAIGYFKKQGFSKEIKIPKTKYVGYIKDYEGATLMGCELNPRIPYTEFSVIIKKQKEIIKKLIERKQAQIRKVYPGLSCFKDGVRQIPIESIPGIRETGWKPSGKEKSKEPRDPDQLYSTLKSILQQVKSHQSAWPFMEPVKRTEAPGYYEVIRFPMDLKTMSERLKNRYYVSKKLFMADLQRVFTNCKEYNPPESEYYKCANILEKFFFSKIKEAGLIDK

[4] = organism: Homo sapiens; experiment: Inhibition of human NatA using AcCoA and H4 peptide as substrate at 1 uM incubated for 12 min at room temperature relative to control
[5] = organism: Homo sapiens; experiment: Inhibition of human NatB using AcCoA and MDVF peptide as substrate at 10 uM incubated for 10 min at room temperature
[6] = system: NatC (Schizosaccharomyces pombe); experiment: Selectivity ratio of inhibition of Schizosaccharomyces pombe NatC to inhibition of human NatD
[7] = molecular target: N-alpha-acetyltransferase 40 (Homo sapiens) (UniProt Q86UY6); experiment: Non-competitive inhibition of human NatD using various concentration of [14C]acetyl-CoA and fixed human H4 peptide as substrate measured after 13 mins radioactive assay
[8] = organism: Homo sapiens; experiment: Selectivity ratio of inhibition of human NatA to inhibition of human NatD
[9] = molecular target: T1, Histone acetyltransferase KAT8 (Homo sapiens) (UniProt Q9H7Z6); experiment: Inhibition of human MOF using AcCoA and H4 peptide as substrate at 1 uM incubated for 20 min at room temperature relative to control
T1 sequence (whole entry): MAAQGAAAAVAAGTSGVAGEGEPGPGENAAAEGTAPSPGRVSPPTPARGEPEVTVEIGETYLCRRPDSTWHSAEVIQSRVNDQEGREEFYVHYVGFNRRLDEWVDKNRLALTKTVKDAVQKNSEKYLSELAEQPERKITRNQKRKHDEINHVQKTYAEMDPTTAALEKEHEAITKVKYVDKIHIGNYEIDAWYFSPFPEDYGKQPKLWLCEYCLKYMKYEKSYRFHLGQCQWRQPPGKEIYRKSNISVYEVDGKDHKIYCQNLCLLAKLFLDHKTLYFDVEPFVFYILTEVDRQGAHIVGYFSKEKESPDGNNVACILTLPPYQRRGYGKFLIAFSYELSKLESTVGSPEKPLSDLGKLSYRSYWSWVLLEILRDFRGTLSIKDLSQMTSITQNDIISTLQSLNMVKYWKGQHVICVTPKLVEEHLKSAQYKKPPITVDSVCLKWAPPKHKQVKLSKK

[10] = molecular target: T2, N-alpha-acetyltransferase 50 (Homo sapiens) (UniProt Q9GZZ1); experiment: Inhibition of human NatE using AcCoA and MLGP peptide as substrate at 10 uM incubated for 40 min at room temperature
T2 sequence (whole entry): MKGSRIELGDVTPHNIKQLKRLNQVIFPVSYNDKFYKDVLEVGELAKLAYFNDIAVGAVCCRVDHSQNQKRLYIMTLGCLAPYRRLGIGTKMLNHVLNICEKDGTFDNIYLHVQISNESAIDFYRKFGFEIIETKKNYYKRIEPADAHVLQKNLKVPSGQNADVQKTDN

[11] = organism: Homo sapiens; experiment: Selectivity ratio of inhibition of human MOF to inhibition of human NatD
[12] = system: NatC (Schizosaccharomyces pombe); experiment: Inhibition of Schizosaccharomyces pombe NatC using AcCoA and MLRF peptide as substrate at 10 uM incubated for 5 min at room temperature

| SMILES | Drug uptake [1] | deltaT [2] [°C] | inhibition [3] | inhibition [4] [%] | inhibition [5] | Selectivity ratio [6] | alphaKi [7] [nM] | Selectivity ratio [8] | inhibition [9] [%] | inhibition [10] | Selectivity ratio [11] | inhibition [12] |
| --- | --- | --- | --- | --- | --- | --- | --- | --- | --- | --- | --- | --- |
| CC(C)(COP(=O)(O)OP(=O)(O)OC[C@H]1O[C@@H](n2cnc3c(N)ncnc32)[C@H](OP(=O)(O)O)[C@@H]1O)C(O)C(=O)NCCC(=O)NCCSCCC(=O)N[C@@H](CO)C(=O)NCC(=O)N[C@@H](CCCNC(=N)N)C(=O)NCC(N)=O (stereo partly drawn) | Active |  |  |  |  |  |  |  |  |  |  |  |
| CC(C)(COP(=O)(O)OP(=O)(O)OC[C@H]1O[C@@H](n2cnc3c(N)ncnc32)[C@H](OP(=O)(O)O)[C@@H]1O)C(O)C(=O)NCCC(=O)NCCSCCC(=O)N[C@@H](CO)C(=O)NCC(=O)N[C@@H](CCCNC(=N)N)C(=O)NCC(=O)N[C@@H](CCCCN)C(N)=O (stereo partly drawn) ([Mpa](X2)SGRGK-NH2) | Active | 1.7 | inactive | 10 | inactive | 10000 | 2.1 | 1000 | 10 | inactive | 1000 | inactive |

Source: ChEMBL document CHEMBL5034000, “Novel Bisubstrate Inhibitors for Protein N-Terminal Acetyltransferase D” (J Med Chem, 2021)
